One test relates to P388. The test is described as follows: Cytotoxicity against mouse P388 cells. The class given is functional, cell-based.
A further test has as its system Bacillus subtilis. The test can be described thus: Antimicrobial activity against Bacillus subtilis. The class given is functional, organism-based.
The next test deals with Candida albicans. The test is described as follows: Antimicrobial activity against Candida albicans. The class given is functional, organism-based.

Here are results for 1 compound from ChEMBL document CHEMBL1156647, “Evolving trends in the dereplication of natural product extracts. 2. The isolation of chrysaibol, an antibiotic peptaibol from a New Zealand sample of the mycoparasitic fungus Sepedonium chrysospermum” (J Nat Prod, 2008).

Molecules are shown by their SMILES. Calls of active or inactive are those of the source. No cut-off for these calls is given here. Residues, ends and D or L forms follow the SMILES beside them.

In general, IC50 refers to the midpoint of a concentration-inhibition curve. Read a high IC50 as weaker potency. Take `CC(=O)N[C@@H](Cc1c[nH]c2ccccc12)C(=O)NC(C)(C)C(=O)NC(C)(C)C(=O)N[C@@H](CC(C)C)C(=O)N[C@H](C(=O)N[C@@H](CCC(N)=O)C(=O)NC(C)(C)C(=O)NC(C)(C)C(=O)NC(C)(C)C(=O)N[C@@H](CCC(N)=O)C(=O)N[C@@H](CC(C)C)C(=O)NC(C)(C)C(=O)N1CCC[C@H]1C(=O)N[C@@H](CCC(N)=O)C(=O)N[C@@H](C)CO)C(C)C` [CHRYSAIBOL] (HELM PEPTIDE1{[ac].W.[Aib].[Aib].L.V.Q.[Aib].[Aib].[Aib].Q.L.[Aib].P.Q.[C[C@@H](CO)N[*:1]]}$$$$V2.0): the IC50 in the test on P388 amounted to 6.61 µM; in the test with Bacillus subtilis, 1.54 µM. In addition, the result with Candida albicans was inactive.
